Measurements taken from patent US20250257060A1, “OXADIAZOLE COMPOUND, PHARMACEUTICAL COMPOSITION COMPRISING SAME, AND USE THEREOF” (SUZHOU GENHOUSE BIO CO., LTD., priority 2022, published 2025).
Where two headings read alike, the source gives them in different places.

Tests used:
[1] = Phase I metabolic stability in mouse liver microsomes (MLMs); assay type: in vitro ADME, CD-1 mice; details: MLM; for CLint scaled at 1 µM / half-life at 1 M / microsomal CLint at 1 M: CD-1, mouse, liver microsomes, pH 7.4; for microsomal CLint at 1 M: read-out: CLint (mic); for Remaining rate (NCF = 60 min): buffer instead of NADPH regeneration system; for Remaining rate (T = 60 min): with NADPH
Method: (§1) Phase I metabolic stability of the test compounds in liver microsomes of CD-1 mice (MLMs), Sprague-Dawley rats (RLMs), beagle dogs (DLMs), cynomolgus monkeys (CLMs), and humans (HLMs) was evaluated.
(§2) The animal and human liver microsomes used in the test system were purchased from Xenotech, Corning, or other qualified suppliers and stored in a freezer at a temperature below −60° C. prior to use.
(§3) The test samples and control compounds were separately incubated with animal and human liver microsomes at 37±1° C. for a period of incubation time up to 60 min. The samples were removed at the indicated time points, and the reaction was stopped with acetonitrile or other organic solvents containing an internal standard. After centrifugation, the resulting supernatants were assayed by liquid chromatography-tandem mass spectrometry (LC-MS/MS).
(§4) 73.21 g of dipotassium hydrogenphosphate trihydrate and 10.78 g of potassium dihydrogenphosphate were dissolved in 4000 mL of ultrapure water. The solution was adjusted to pH 7.40±0.10 with 10% phosphoric acid or 1 M potassium hydroxide to make a final concentration of 100 mM.
(§5) The test sample powder was prepared into a stock solution at a certain concentration with DMSO or other organic solvents, which was then further diluted with a proper organic solvent.
(§6) Microsomes of each species were diluted into a 2× working solution with a 100 mM potassium phosphate buffer. The final concentration of the microsomes in the reaction system was 0.5 mg/mL.
(§7) An appropriate amount of nicotinamide adenine dinucleotide phosphate (NADP) and isocitric acid (ISO) powder was weighed out, dissolved in a magnesium chloride solution, and shaken and mixed well. An appropriate amount of isocitrate dehydrogenase (IDH) was added, and the mixture was mixed well by gently turning upside down. The final concentrations in the reaction system were: 1 mM NADP, 1 mM magnesium chloride, 6 mM ISO, and 1 unit/mL IDH.
(§8) Incubation was performed in a 96-well plate. Eight incubation plates were prepared and designated T0, T5, T15, T30, T45, T60, Blank60, and NCF60, respectively. The first 6 plates corresponded to reaction time points of 0, 5, 15, 30, 45, and 60 min, respectively. No test sample or control compound was added to the Blank60 plate, and samples were taken after 60 min of incubation. In the NCF60 plate, incubation was performed for 60 min using the potassium phosphate buffer instead of the NADPH regeneration system solution. Three replicates were made for samples in all conditions.
(§9) The microsomes and the test sample or control compound were mixed, and then the incubation plates Blank60, T5, T15, T30, T45, and T60 except for TO and NCF60 were placed in a 37° C. water bath for pre-incubation for about 10 min. In the incubation plate TO, a stop solution was first added, followed by addition of the NADPH regeneration system working solution, and 98 μL of the potassium phosphate buffer was added to each sample well of the incubation plate NCF60 to initiate the reaction. After the pre-incubations of the incubation plates Blank60, T5, T15, T30, T45, and T60 were completed, 98 μL of the NADPH regeneration system working solution was added to each sample well to initiate the reaction. The reaction temperature was 37±1° C., the final volume of the reaction was 200 μL, and the reaction system included 0.5 mg/mL microsomes, […], 1 mM NADP, 6 mM ISO, and 1 unit/mL IDH.
(§10) At 5 min, 15 min, 30 min, 45 min, and 60 min, a cold stop solution containing an internal standard was added to the reaction plate to stop the reaction.
(§11) All the reaction plates after the reaction was stopped were shaken well and centrifuged at 3220×g at 4° C. for 20 min. After the supernatant was diluted according to a certain proportion, LC-MS/MS analysis was performed.
(§12) Sample analysis was performed by the liquid chromatography-tandem mass spectrometry (LC-MS/MS) method without standard curves and quality control samples. […]

[2] = Phase I metabolic stability in human liver microsomes (HLMs); assay type: in vitro ADME, humans; details: HLM; for Remaining rate (NCF = 60 min): buffer instead of NADPH regeneration system; for Remaining rate (T = 60 min): with NADPH; for CLint scaled at 1 µM / half-life at 1 M / microsomal CLint at 1 M: human, liver microsomes, pH 7.4; for microsomal CLint at 1 M: read-out: CLint (mic)
Method: as §1, §2, §3, §4, §5, §6, §7, §8, §9, §10, §11, §12

[3] = Pharmacokinetic test in mice (IV and PO); assay type: in vivo, BALB/c mice; details: for Cmax / AUC(0-inf) / AUC(0-t) / MRT inf / Vd / Tmax: BALB/c, mouse, plasma; for MRT inf: read-out: MRT(0-∞); for Vd: read-out: Vz
In short: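 BALB/c mice (3 per group) given single IV or intragastric doses; blood sampled orbitally at 0.25–24 h into K2-EDTA tubes for plasma. Concentrations measured by LC-MS/MS; parameters from non-compartmental analysis with linear-log trapezoidal method.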

[4] = Phase I metabolic stability in rat liver microsomes (RLMs); assay type: in vitro ADME, Sprague-Dawley rats; details: RLM; for Remaining rate (NCF = 60 min): buffer instead of NADPH regeneration system; for Remaining rate (T = 60 min): with NADPH; for CLint scaled at 1 µM / half-life at 1 M / microsomal CLint at 1 µM: Sprague-Dawley, rat, liver microsomes, pH 7.4; for microsomal CLint at 1 µM: read-out: CLint (mic)
Method: as §1, §2, §3, §4, §5, §6, §7, §8, §9, §10, §11, §12

[5] = po, 10 mg/kg, read-out: C0/Cmax
[6] = po, 100 mg/kg, read-out: C0/Cmax
[7] = mice, PO 30 mg/kg (Cmax), read-out: C0/Cmax

With `O=C(N[C@@H]1CCCC[C@H]1N1Cc2ccc(-c3nnc(C(F)F)o3)cc2S1(=O)=O)C(F)F` [Compound 2] the CLint scaled at 1 µM [1] was less than 38 mL/min/kg, the half-life at 1 M [1] was greater than 2.42 h and the microsomal CLint at 1 M [1] was less than 9.6 µL/min/mg. For the same compound, the “Remaining rate (NCF = 60 min)” value [1] was 99.8%, the “Remaining rate (T = 60 min)” value [1] was 84.8% and the “Remaining rate (NCF = 60 min)” value [2] was 97.3%. The “Remaining rate (T = 60 min)” value [2] was 86.1%, the CLint scaled at 1 µM [2] was less than 8.6 mL/min/kg and the half-life at 1 M [2] was greater than 2.42 h. It also gave a microsomal CLint at 1 M [2] of less than 9.6 µL/min/mg, a Cmax [3, 5] of 13.9 µM and a Cmax [3, 6] of 87.9 µM. It also gave an AUC(0-inf) ([3]; mice, IV 2 mg/kg) of 12.6 µM·h, an AUC(0-t) ([3]; mice, IV 2 mg/kg) of 12.6 µM·h and a Cmax ([3]; mice, IV 2 mg/kg (C0)) of 6.75 µM. It also gave an MRT inf ([3]; mice, IV 2 mg/kg) of 2.35 h, a Vd ([3]; mice, IV 2 mg/kg) of 0.55 L/kg and an AUC(0-inf) ([3]; mice, PO 10 mg/kg) of 77.8 µM·h. It also gave an AUC(0-t) ([3]; mice, PO 10 mg/kg) of 77.7 µM·h, a Tmax ([3]; mice, PO 10 mg/kg) of 0.5 h and an MRT inf ([3]; mice, PO 10 mg/kg) of 4.5 h. For the same compound, the AUC(0-inf) ([3]; mice, PO 30 mg/kg) was 182 µM·h, the AUC(0-t) ([3]; mice, PO 30 mg/kg) was 182 µM·h and the Tmax ([3]; mice, PO 30 mg/kg) was 0.67 h. For the same compound, the Cmax [3, 7] was 35 µM, the MRT inf ([3]; mice, PO 30 mg/kg) was 3.66 h and the AUC(0-inf) ([3]; mice, PO 100 mg/kg) was 601 µM·h. The AUC(0-t) ([3]; mice, PO 100 mg/kg) was 601 µM·h, the Tmax ([3]; mice, PO 100 mg/kg) was 1.33 h and the MRT inf ([3]; mice, PO 100 mg/kg) was 4.33 h. The CLz ([3]; mice, IV 2 mg/kg) was 6 mL/min/kg, the t½z ([3]; mice, IV 2 mg/kg) was 1.01 h and the F ([3]; mice, PO 10 mg/kg) was 123.92%. It also gave a t½z ([3]; mice, PO 10 mg/kg) of 1.62 h, an F ([3]; mice, PO 30 mg/kg) of 96.93% and a t½z ([3]; mice, PO 30 mg/kg) of 0.87 h. The F ([3]; mice, PO 100 mg/kg) was 95.71%, the t½z ([3]; mice, PO 100 mg/kg) was 0.81 h and the “Remaining rate (NCF = 60 min)” value [4] was 93.0%. The “Remaining rate (T = 60 min)” value [4] was 76.4%, the CLint scaled at 1 µM [4] was less than 17.3 mL/min/kg and the half-life at 1 M [4] was greater than 2.42 h. For the same compound, the microsomal CLint at 1 µM [4] was less than 9.6 µL/min/mg.

With `O=C(N[C@H]1[C@H](N2Cc3ccc(-c4nnc(C(F)F)o4)cc3S2(=O)=O)CCCC1(F)F)C(F)F` [Compound 61] the CLint scaled at 1 µM [1] was 18.6 mL/min/kg, the half-life at 1 M [1] was 4.9 h and the “Remaining rate (NCF = 60 min)” value [1] was 83.81%. For the same compound, the “Remaining rate (T = 60 min)” value [1] was 85.14%, the “Remaining rate (NCF = 60 min)” value [2] was 86.25% and the “Remaining rate (T = 60 min)” value [2] was 85.62%. It also gave a CLint scaled at 1 µM [2] of 7.26 mL/min/kg, a half-life at 1 M [2] of 3.99 h and a Cmax [3, 5] of 12.6 µM. For the same compound, the AUC(0-inf) ([3]; mice, IV 2 mg/kg) was 15.4 µM·h, the AUC(0-t) ([3]; mice, IV 2 mg/kg) was 12.8 µM·h and the Cmax ([3]; mice, IV 2 mg/kg (C0)) was 4.52 µM. The MRT inf ([3]; mice, IV 2 mg/kg) was 4.38 h, the Vd ([3]; mice, IV 2 mg/kg) was 1.18 L/kg and the AUC(0-inf) ([3]; mice, PO 10 mg/kg) was 73.4 µM·h. The AUC(0-t) ([3]; mice, PO 10 mg/kg) was 57 µM·h, the Tmax ([3]; mice, PO 10 mg/kg) was 1 h and the MRT inf ([3]; mice, PO 10 mg/kg) was 5.3 h. The CLz ([3]; mice, IV 2 mg/kg) was 4.35 mL/min/kg, the t½z ([3]; mice, IV 2 mg/kg) was 3.12 h and the F ([3]; mice, PO 10 mg/kg) was 89.2%. The t½z ([3]; mice, PO 10 mg/kg) was 3.551 h, the “Remaining rate (NCF = 60 min)” value [4] was 88.24% and the “Remaining rate (T = 60 min)” value [4] was 72.95%. It also gave a CLint scaled at 1 µM [4] of 19.4 mL/min/kg and a half-life at 1 M [4] of 2.14 h.

With `CC(F)(F)C(=O)N[C@@H]1CCCC[C@H]1N1Cc2ccc(-c3nnc(C(F)F)o3)cc2S1(=O)=O` [Compound 1] the CLint scaled at 1 µM [1] was less than 38 mL/min/kg, the half-life at 1 M [1] was greater than 2.42 h and the microsomal CLint at 1 M [1] was less than 9.6 µL/min/mg. For the same compound, the “Remaining rate (NCF = 60 min)” value [1] was 97.6%, the “Remaining rate (T = 60 min)” value [1] was 79.8% and the “Remaining rate (NCF = 60 min)” value [2] was 83.4%. The “Remaining rate (T = 60 min)” value [2] was 79.0%, the CLint scaled at 1 µM [2] was less than 8.6 mL/min/kg and the half-life at 1 M [2] was greater than 2.42 h. For the same compound, the microsomal CLint at 1 M [2] was less than 9.6 µL/min/mg, the Cmax [3, 5] was 8.97 µM and the Cmax [3, 6] was 30.5 µM. For the same compound, the AUC(0-inf) ([3]; mice, IV 2 mg/kg) was 9.88 µM·h, the AUC(0-t) ([3]; mice, IV 2 mg/kg) was 9.88 µM·h and the Cmax ([3]; mice, IV 2 mg/kg (C0)) was 4.52 µM. For the same compound, the MRT inf ([3]; mice, IV 2 mg/kg) was 2.19 h, the Vd ([3]; mice, IV 2 mg/kg) was 0.684 L/kg and the AUC(0-inf) ([3]; mice, PO 10 mg/kg) was 45.2 µM·h. It also gave an AUC(0-t) ([3]; mice, PO 10 mg/kg) of 45.2 µM·h, a Tmax ([3]; mice, PO 10 mg/kg) of 1 h and an MRT inf ([3]; mice, PO 10 mg/kg) of 3.35 h. The AUC(0-inf) ([3]; mice, PO 30 mg/kg) was 73.1 µM·h, the AUC(0-t) ([3]; mice, PO 30 mg/kg) was 73.1 µM·h and the Tmax ([3]; mice, PO 30 mg/kg) was 0.417 h. The Cmax [3, 7] was 17.5 µM, the MRT inf ([3]; mice, PO 30 mg/kg) was 3.65 h and the AUC(0-inf) ([3]; mice, PO 100 mg/kg) was 171 µM·h. For the same compound, the AUC(0-t) ([3]; mice, PO 100 mg/kg) was 171 µM·h, the Tmax ([3]; mice, PO 100 mg/kg) was 1.5 h and the MRT inf ([3]; mice, PO 100 mg/kg) was 3.71 h. It also gave a CLz ([3]; mice, IV 2 mg/kg) of 7.1 mL/min/kg, a t½z ([3]; mice, IV 2 mg/kg) of 1.062 h and an F ([3]; mice, PO 10 mg/kg) of 91.46%. For the same compound, the t½z ([3]; mice, PO 10 mg/kg) was 0.919 h, the F ([3]; mice, PO 30 mg/kg) was 49.31% and the t½z ([3]; mice, PO 30 mg/kg) was 0.918 h. For the same compound, the F ([3]; mice, PO 100 mg/kg) was 34.72%, the t½z ([3]; mice, PO 100 mg/kg) was 1.292 h and the “Remaining rate (NCF = 60 min)” value [4] was 100.2%. For the same compound, the “Remaining rate (T = 60 min)” value [4] was 68.9%, the CLint scaled at 1 µM [4] was 25.8 mL/min/kg and the half-life at 1 M [4] was 1.61 h. The microsomal CLint at 1 µM [4] was 14.4 µL/min/mg.
